Data taken from BindingDB's records for doi:10.1016/j.bmc.2005.09.050 (Lund University, 2006).

How the values were obtained:
Assay in all cases: Fluorescence Polarization Assay
[1] = target: T1, Galectin-8 (Homo sapiens, UniProt O00214)
T1 sequence (O00214 whole entry): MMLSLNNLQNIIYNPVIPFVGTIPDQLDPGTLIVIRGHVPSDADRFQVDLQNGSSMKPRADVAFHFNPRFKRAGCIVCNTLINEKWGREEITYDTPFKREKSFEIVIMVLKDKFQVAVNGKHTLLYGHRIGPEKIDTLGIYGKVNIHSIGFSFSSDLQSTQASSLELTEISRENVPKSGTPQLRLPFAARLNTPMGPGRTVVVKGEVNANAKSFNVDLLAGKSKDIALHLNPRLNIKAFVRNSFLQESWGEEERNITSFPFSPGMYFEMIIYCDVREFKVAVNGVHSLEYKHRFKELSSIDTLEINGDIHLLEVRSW
Procedure: (§1) In fluorescence polarization measurements, a fluorescent probe was excited with plane-polarized light and the degree of polarization remaining in the emitted light is measured. When the probe is bound to protein, it rotates slower than when free, and the remaining fluorescence polarization is higher. The fluorescent anisotropy value for a probe-protein mixture is the average of the value for bound and free probe. For the direct binding asaay, the data (anisotropy, A in mA vs galectin concentration, [G] in uM) were fitted to a simplified formula to obtain Kd.

[2] = target: Galectin-9 (Homo sapiens, UniProt O00182)
Procedure: as §1

[3] = target: Galectin-1 (Homo sapiens, UniProt P09382); conditions: pH 7.2; 24 °C
Procedure: as §1

[4] = target: Galectin-7 (Homo sapiens, UniProt P47929)
Procedure: as §1

[5] = target: Galectin-3 (Homo sapiens, UniProt P17931); conditions: pH 7.2; 24 °C
Procedure: as §1

Chain of Galectin-9 (O00182 whole entry): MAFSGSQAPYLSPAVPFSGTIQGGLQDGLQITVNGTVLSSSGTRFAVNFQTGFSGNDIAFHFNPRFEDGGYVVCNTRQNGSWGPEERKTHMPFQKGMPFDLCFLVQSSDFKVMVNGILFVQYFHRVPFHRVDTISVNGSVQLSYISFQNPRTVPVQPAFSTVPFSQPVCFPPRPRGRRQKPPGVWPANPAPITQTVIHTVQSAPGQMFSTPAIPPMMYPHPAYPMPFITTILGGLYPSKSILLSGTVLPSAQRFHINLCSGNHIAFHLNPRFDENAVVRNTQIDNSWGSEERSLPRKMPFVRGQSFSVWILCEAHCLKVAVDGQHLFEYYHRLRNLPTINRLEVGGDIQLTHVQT
Chain of Galectin-1 (P09382 whole entry): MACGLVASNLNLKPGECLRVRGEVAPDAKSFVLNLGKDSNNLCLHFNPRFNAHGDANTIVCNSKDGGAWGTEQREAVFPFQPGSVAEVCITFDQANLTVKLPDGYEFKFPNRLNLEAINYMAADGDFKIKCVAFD
Chain of Galectin-3 (P17931 whole entry): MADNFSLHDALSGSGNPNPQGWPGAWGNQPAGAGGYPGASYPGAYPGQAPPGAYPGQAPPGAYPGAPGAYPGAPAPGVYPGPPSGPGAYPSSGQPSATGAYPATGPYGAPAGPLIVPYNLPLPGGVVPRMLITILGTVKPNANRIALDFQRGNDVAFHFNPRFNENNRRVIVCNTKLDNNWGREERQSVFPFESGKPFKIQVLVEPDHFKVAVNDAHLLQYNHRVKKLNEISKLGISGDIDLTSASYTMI
Chain of Galectin-7 (P47929 whole entry): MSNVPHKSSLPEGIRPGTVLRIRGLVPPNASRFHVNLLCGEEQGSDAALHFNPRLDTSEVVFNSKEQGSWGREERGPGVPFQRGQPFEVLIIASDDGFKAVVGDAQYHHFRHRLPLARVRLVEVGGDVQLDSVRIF

| SMILES | Kd [1] [µM] | Kd [2] [µM] | Kd [3] [µM] | Kd [4] [µM] | Kd [5] [µM] |
| --- | --- | --- | --- | --- | --- |
| CO[C@@H]1O[C@H](CO)[C@@H](O[C@@H]2O[C@H](CO)[C@H](O)[C@H](O)[C@H]2O)[C@H](O)[C@H]1NC(C)=O [N-[(2R,3R,4R,5S,6R)-4-hydroxy-6-(hydroxymethyl)-2-methoxy-5-{[(2S,3R,4S,5R,6R)-3,4,5-trihydroxy-6-(hydroxymethyl)oxan-2-yl]oxy}oxan-3-yl]acetamide] | 700 | 500 | 70 | 490 | 67 |
| CO[C@@H]1O[C@H](CO)[C@@H](O[C@@H]2O[C@H](CO)[C@H](O)[C@H](NC(=S)NCCO)[C@H]2O)[C@H](O)[C@H]1NC(C)=O [N-[(2R,3R,4R,5S,6R)-5-{[(2S,3R,4S,5R,6R)-3,5-dihydroxy-4-{[(2-hydroxyethyl)carbamothioyl]amino}-6-(hydroxymethyl)oxan-2-yl]oxy}-4-hydroxy-6-(hydroxymethyl)-2-methoxyoxan-3-yl]acetamide] | 500 | 120 | 49 | 130 | 74 |
| CNC(=S)N[C@H]1[C@@H](O)[C@@H](CO)O[C@@H](O[C@H]2[C@H](O)[C@@H](NC(C)=O)[C@H](OC)O[C@@H]2CO)[C@@H]1O [N-[(2R,3R,4R,5S,6R)-5-{[(2S,3R,4S,5R,6R)-3,5-dihydroxy-6-(hydroxymethyl)-4-[(methylcarbamothioyl)amino]oxan-2-yl]oxy}-4-hydroxy-6-(hydroxymethyl)-2-methoxyoxan-3-yl]acetamide] | > 3000 | 110 | 49 | 65 | 38 |
| CO[C@@H]1O[C@H](CO)[C@@H](O[C@@H]2O[C@H](CO)[C@H](O)[C@H](NC(=S)N3CCOCC3)[C@H]2O)[C@H](O)[C@H]1NC(C)=O [N-[(2R,3R,4R,5S,6R)-5-{[(2S,3R,4S,5R,6R)-3,5-dihydroxy-6-(hydroxymethyl)-4-[(morpholin-4-ylmethanethioyl)amino]oxan-2-yl]oxy}-4-hydroxy-6-(hydroxymethyl)-2-methoxyoxan-3-yl]acetamide] | – | – | 160 | – | 69 |
| CO[C@@H]1O[C@H](CO)[C@@H](O[C@@H]2O[C@H](CO)[C@H](O)[C@H](NC(=S)Nc3ccccc3)[C@H]2O)[C@H](O)[C@H]1NC(C)=O [N-[(2R,3R,4R,5S,6R)-5-{[(2S,3R,4S,5R,6R)-3,5-dihydroxy-6-(hydroxymethyl)-4-[(phenylcarbamothioyl)amino]oxan-2-yl]oxy}-4-hydroxy-6-(hydroxymethyl)-2-methoxyoxan-3-yl]acetamide] | > 3000 | 100 | 45 | 110 | 40 |
| C=CCNC(=S)N[C@H]1[C@@H](O)[C@@H](CO)O[C@@H](O[C@H]2[C@H](O)[C@@H](NC(C)=O)[C@H](OC)O[C@@H]2CO)[C@@H]1O [N-[(2R,3R,4R,5S,6R)-5-{[(2S,3R,4S,5R,6R)-3,5-dihydroxy-6-(hydroxymethyl)-4-[(prop-2-en-1-ylcarbamothioyl)amino]oxan-2-yl]oxy}-4-hydroxy-6-(hydroxymethyl)-2-methoxyoxan-3-yl]acetamide] | > 3000 | 97 | 34 | 100 | 52 |
| CO[C@@H]1O[C@H](CO)[C@@H](O[C@@H]2O[C@H](CO)[C@H](O)[C@H](NC(=S)NCCCO)[C@H]2O)[C@H](O)[C@H]1NC(C)=O [N-[(2R,3R,4R,5S,6R)-5-{[(2S,3R,4S,5R,6R)-3,5-dihydroxy-6-(hydroxymethyl)-4-{[(3-hydroxypropyl)carbamothioyl]amino}oxan-2-yl]oxy}-4-hydroxy-6-(hydroxymethyl)-2-methoxyoxan-3-yl]acetamide] | > 3000 | 92 | 23 | 150 | 65 |
| CO[C@@H]1O[C@H](CO)[C@@H](O[C@@H]2O[C@H](CO)[C@H](O)[C@H](NC(=S)NCc3cccnc3)[C@H]2O)[C@H](O)[C@H]1NC(C)=O [N-[(2R,3R,4R,5S,6R)-5-{[(2S,3R,4S,5R,6R)-3,5-dihydroxy-6-(hydroxymethyl)-4-{[(pyridin-3-ylmethyl)carbamothioyl]amino}oxan-2-yl]oxy}-4-hydroxy-6-(hydroxymethyl)-2-methoxyoxan-3-yl]acetamide] | – | 47 | 43 | 23 | 35 |
| CO[C@@H]1O[C@H](CO)[C@@H](O[C@@H]2O[C@H](CO)[C@H](O)[C@H](NC(N)=S)[C@H]2O)[C@H](O)[C@H]1NC(C)=O [N-[(2R,3R,4R,5S,6R)-5-{[(2S,3R,4S,5R,6R)-4-(carbamothioylamino)-3,5-dihydroxy-6-(hydroxymethyl)oxan-2-yl]oxy}-4-hydroxy-6-(hydroxymethyl)-2-methoxyoxan-3-yl]acetamide] | > 3000 | 76 | 43 | 170 | 65 |
| CO[C@@H]1O[C@H](CO)[C@@H](O[C@@H]2O[C@H](CO)[C@H](O)[C@H](NC(=S)N[C@H]3[C@@H](O)[C@@H](CO)O[C@@H](O[C@H]4[C@H](O)[C@@H](NC(C)=O)[C@H](OC)O[C@@H]4CO)[C@@H]3O)[C@H]2O)[C@H](O)[C@H]1NC(C)=O [N-[(2R,3R,4R,5S,6R)-5-{[(2S,3R,4S,5R,6R)-4-({[(2S,3R,4S,5R,6R)-2-{[(2R,3S,4R,5R,6R)-5-acetamido-4-hydroxy-2-(hydroxymethyl)-6-methoxyoxan-3-yl]oxy}-3,5-dihydroxy-6-(hydroxymethyl)oxan-4-yl]carbamothioyl}amino)-3,5-dihydroxy-6-(hydroxymethyl)oxan-2-yl]oxy}-4-hydroxy-6-(hydroxymethyl)-2-methoxyoxan-3-yl]acetamide] | > 3000 | 240 | 58 | 170 | 160 |
| CO[C@@H]1O[C@H](CO)[C@@H](O[C@@H]2O[C@H](CO)[C@H](O)[C@H](NC(=S)NCc3ccccc3)[C@H]2O)[C@H](O)[C@H]1NC(C)=O [N-[(2R,3R,4R,5S,6R)-5-{[(2S,3R,4S,5R,6R)-4-[(benzylcarbamothioyl)amino]-3,5-dihydroxy-6-(hydroxymethyl)oxan-2-yl]oxy}-4-hydroxy-6-(hydroxymethyl)-2-methoxyoxan-3-yl]acetamide] | – | – | 35 | – | 15 |
| CCCCNC(=S)N[C@H]1[C@@H](O)[C@@H](CO)O[C@@H](O[C@H]2[C@H](O)[C@@H](NC(C)=O)[C@H](OC)O[C@@H]2CO)[C@@H]1O [N-[(2R,3R,4R,5S,6R)-5-{[(2S,3R,4S,5R,6R)-4-[(butylcarbamothioyl)amino]-3,5-dihydroxy-6-(hydroxymethyl)oxan-2-yl]oxy}-4-hydroxy-6-(hydroxymethyl)-2-methoxyoxan-3-yl]acetamide] | > 3000 | 69 | 23 | 130 | 23 |
| CO[C@@H]1O[C@H](CO)[C@@H](O[C@@H]2O[C@H](CO)[C@H](O)[C@H](NC(=S)NC3CCCCC3)[C@H]2O)[C@H](O)[C@H]1NC(C)=O [N-[(2R,3R,4R,5S,6R)-5-{[(2S,3R,4S,5R,6R)-4-[(cyclohexylcarbamothioyl)amino]-3,5-dihydroxy-6-(hydroxymethyl)oxan-2-yl]oxy}-4-hydroxy-6-(hydroxymethyl)-2-methoxyoxan-3-yl]acetamide] | 650 | 80 | 40 | 24 | 57 |
| CCN(CC)C(=S)N[C@H]1[C@@H](O)[C@@H](CO)O[C@@H](O[C@H]2[C@H](O)[C@@H](NC(C)=O)[C@H](OC)O[C@@H]2CO)[C@@H]1O [N-[(2R,3R,4R,5S,6R)-5-{[(2S,3R,4S,5R,6R)-4-[(diethylcarbamothioyl)amino]-3,5-dihydroxy-6-(hydroxymethyl)oxan-2-yl]oxy}-4-hydroxy-6-(hydroxymethyl)-2-methoxyoxan-3-yl]acetamide] | > 3000 | 280 | 46 | 180 | 43 |
